In patent US10787452B2 (Vertex Pharmaceuticals Incorporated, priority 2012, dated 2020):

Tested on: HCT116 colorectal cancer cells
Assay: Cisplatin sensitization assay (96 h cell viability MTS);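 also: compound concentration needed to lower the Cisplatin-alone IC50 by a set fold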
Assay type: cell-based
Conditions: 96 h MTS, compound plus Cisplatin
Procedure: Compounds can be screened for their ability to sensitize HCT116 colorectal cancer cells to Cisplatin using a 96 h cell viability (MTS) assay. […] Compounds and Cisplatin are then both added simultaneously to the cell media in 2-fold serial dilutions from a top final concentration of 10 μM as a full matrix of concentrations in a final cell volume of 200 μl, and the cells are then incubated at 37° C. in 5% CO2. After 96 h, 40 μl of MTS reagent (Promega G358a) is added to each well and the cells are incubated for 1 h at 37° C. in 5% CO2.

Structure (SMILES) | Cisplatin Sensitization Assay
Nc1nn2cc(F)cnc2c1C(=O)Nc1cnccc1N1CCN(C2CCOC2)CC1 (racemic) [I-N-19, (R,S)-2-amino-6-fluoro-N-(4-(4-(tetrahydrofuran-3-yl)piperazin-1-yl)pyridin-3-yl)pyrazolo[1,5-a]pyrimidine-3-carboxamide] | +++ (Compounds with a Cisplatin sensitization value of <0.02 μM are marked with “+++.”)
N#CCc1cnc2c(C(=O)Nc3cnccc3OC3CCCNC3)c(N)nn2c1 (racemic) [I-O-2, (R,S)-2-amino-6-(cyanomethyl)-N-(4-(piperidin-3-yloxy)pyridin-3-yl)pyrazolo[1,5-a]pyrimidine-3-carboxamide] | ++ (Compounds with a Cisplatin sensitization value >0.02 μM but <0.2 μM are marked with “++.”)
Nc1nn2cc(F)cnc2c1C(=O)Nc1cnccc1OC1CN2CCC1CC2 (racemic) [I-O-6, (R,S)-2-amino-6-fluoro-N-(4-(quinuclidin-3-yloxy)pyridin-3-yl)pyrazolo[1,5-a]pyrimidine-3-carboxamide] | +++ (Compounds with a Cisplatin sensitization value of <0.02 μM are marked with “+++.”)
Nc1nn2cc(F)cnc2c1C(=O)Nc1cnccc1OC1CCOC1 (racemic) [I-O-15, (R,S)-2-amino-6-fluoro-N-(4-((tetrahydrofuran-3-yl)oxy)pyridin-3-yl)pyrazolo[1,5-a]pyrimidine-3-carboxamide] | +++ (Compounds with a Cisplatin sensitization value of <0.02 μM are marked with “+++.”)
CN1CCC(c2ccncc2NC(=O)c2c(N)nn3cc(F)cnc23)CC1 [I-C-1, 2-amino-6-fluoro-N-(4-(1-methylpiperidin-4-yl)pyridin-3-yl)pyrazolo[1,5-a]pyrimidine-3-carboxamide] | ++ (Compounds with a Cisplatin sensitization value >0.02 μM but <0.2 μM are marked with “++.”)
Cc1ccncc1NC(=O)c1c(N)nn2cc(Cl)cnc12 [I-C-2, 2-amino-6-chloro-N-(4-methylpyridin-3-yl)pyrazolo[1,5-a]pyrimidine-3-carboxamide] | ++ (Compounds with a Cisplatin sensitization value >0.02 μM but <0.2 μM are marked with “++.”)
Cc1ccncc1NC(=O)c1c(N)nn2cc(F)cnc12 [I-C-4, 2-amino-6-fluoro-N-(4-methylpyridin-3-yl)pyrazolo[1,5-a]pyrimidine-3-carboxamide] | ++ (Compounds with a Cisplatin sensitization value >0.02 μM but <0.2 μM are marked with “++.”)
Nc1nn2cc(F)cnc2c1C(=O)Nc1cnccc1-c1ccccc1 [I-C-5, 2-amino-6-fluoro-N-(4-phenylpyridin-3-yl)pyrazolo[1,5-a]pyrimidine-3-carboxamide] | +++ (Compounds with a Cisplatin sensitization value of <0.02 μM are marked with “+++.”)
N#CCc1cnc2c(C(=O)Nc3cnccc3-c3ccccc3)c(N)nn2c1 [I-C-6, 2-amino-6-(cyanomethyl)-N-(4-phenylpyridin-3-yl)pyrazolo[1,5-a]pyrimidine-3-carboxamide] | +++ (Compounds with a Cisplatin sensitization value of <0.02 μM are marked with “+++.”)
Nc1nn2cc(F)cnc2c1C(=O)Nc1cncc2c1CCNC2 [I-C-7, 2-amino-6-fluoro-N-(5,6,7,8-tetrahydro-2,7-naphthyridin-4-yl)pyrazolo[1,5-a]pyrimidine-3-carboxamide] | ++ (Compounds with a Cisplatin sensitization value >0.02 μM but <0.2 μM are marked with “++.”)
CN1CCc2c(cncc2NC(=O)c2c(N)nn3cc(F)cnc23)C1 [I-C-8, 2-amino-6-fluoro-N-(7-methyl-5,6,7,8-tetrahydro-2,7-naphthyridin-4-yl)pyrazolo[1,5-a]pyrimidine-3-carboxamide] | + (Compounds with a Cisplatin sensitization value >0.2 μM but <5 μM are marked with “+.”)
C[N+]1([O-])CCc2c(cncc2NC(=O)c2c(N)nn3cc(F)cnc23)C1 (stereo not shown) [I-C-9, 5-(2-amino-6-fluoropyrazolo[1,5-a]pyrimidine-3-carboxamido)-2-methyl-1,2,3,4-tetrahydro-2,7-naphthyridine 2-oxide] | + (Compounds with a Cisplatin sensitization value >0.2 μM but <5 μM are marked with “+.”)
Nc1nn2cc(F)cnc2c1C(=O)Nc1cnccc1C1CCN(C2COC2)CC1 [I-C-10, 2-amino-6-fluoro-N-(4-(1-(oxetan-3-yl)piperidin-4-yl)pyridin-3-yl)pyrazolo[1,5-a]pyrimidine-3-carboxamide] | +++ (Compounds with a Cisplatin sensitization value of <0.02 μM are marked with “+++.”)
Nc1nn2cc(Cl)cnc2c1C(=O)Nc1cnccc1C1CCN(C2COC2)CC1 [I-C-11, 2-amino-6-chloro-N-(4-(1-(oxetan-3-yl)piperidin-4-yl)pyridin-3-yl)pyrazolo[1,5-a]pyrimidine-3-carboxamide] | +++ (Compounds with a Cisplatin sensitization value of <0.02 μM are marked with “+++.”)
Nc1nn2cc(F)cnc2c1C(=O)Nc1cncc(F)c1C1=CCN(C2COC2)CC1 [I-C-12, 2-amino-6-fluoro-N-(5-fluoro-1′-(oxetan-3-yl)-1′,2′,3′,6′-tetrahydro-[4,4′-bipyridin]-3-yl)pyrazolo[1,5-a]pyrimidine-3-carboxamide] | +++ (Compounds with a Cisplatin sensitization value of <0.02 μM are marked with “+++.”)
Nc1nn2cc(F)cnc2c1C(=O)Nc1cncc(F)c1C1CCN(C2COC2)CC1 [I-C-13, 2-amino-6-fluoro-N-(5-fluoro-4-(1-(oxetan-3-yl)piperidin-4-yl)pyridin-3-yl)pyrazolo[1,5-a]pyrimidine-3-carboxamide] | ++ (Compounds with a Cisplatin sensitization value >0.02 μM but <0.2 μM are marked with “++.”)
CN1CCC(c2c(F)cncc2NC(=O)c2c(N)nn3cc(F)cnc23)CC1 [I-C-14, 2-amino-6-fluoro-N-(5-fluoro-4-(1-methylpiperidin-4-yl)pyridin-3-yl)pyrazolo[1,5-a]pyrimidine-3-carboxamide] | + (Compounds with a Cisplatin sensitization value >0.2 μM but <5 μM are marked with “+.”)
Nc1nn2cc(F)cnc2c1C(=O)Nc1cnccc1-c1cccnc1 [I-C-15, N-([3,4′-bipyridin]-3′-yl)-2-amino-6-fluoropyrazolo[1,5-a]pyrimidine-3-carboxamide] | ++ (Compounds with a Cisplatin sensitization value >0.02 μM but <0.2 μM are marked with “++.”)
CN1CCC(C(=O)N2CCC(c3ccncc3NC(=O)c3c(N)nn4cc(F)cnc34)CC2)CC1 [I-C-16, 2-amino-6-fluoro-N-(4-(1-(1-methylpiperidine-4-carbonyl)piperidin-4-yl)pyridin-3-yl)pyrazolo[1,5-a]pyrimidine-3-carboxamide] | + (Compounds with a Cisplatin sensitization value >0.2 μM but <5 μM are marked with “+.”)
CN1CCN(C(=O)N2CCC(c3ccncc3NC(=O)c3c(N)nn4cc(F)cnc34)CC2)CC1 [I-C-17, 2-amino-6-fluoro-N-(4-(1-(4-methylpiperazine-1-carbonyl)piperidin-4-yl)pyridin-3-yl)pyrazolo[1,5-a]pyrimidine-3-carboxamide] | ++ (Compounds with a Cisplatin sensitization value >0.02 μM but <0.2 μM are marked with “++.”)
Nc1nn2cc(F)cnc2c1C(=O)Nc1cnccc1C1CCN(C(=O)C23CCN(CC2)CC3)CC1 [I-C-18, 2-amino-6-fluoro-N-(4-(1-(quinuclidine-4-carbonyl)piperidin-4-yl)pyridin-3-yl)pyrazolo[1,5-a]pyrimidine-3-carboxamide] | + (Compounds with a Cisplatin sensitization value >0.2 μM but <5 μM are marked with “+.”)
CN1CCN(C(=O)c2ccc(-c3ccncc3NC(=O)c3c(N)nn4cc(F)cnc34)cn2)CC1 [I-C-19, 2-amino-6-fluoro-N-(6-(4-methylpiperazine-1-carbonyl)-[3,4′-bipyridin]-3′-yl)pyrazolo[1,5-a]pyrimidine-3-carboxamide] | ++ (Compounds with a Cisplatin sensitization value >0.02 μM but <0.2 μM are marked with “++.”)
Cc1ncccc1-c1ccncc1NC(=O)c1c(N)nn2cc(F)cnc12 [I-C-20, 2-amino-6-fluoro-N-(2-methyl-[3,4′-bipyridin]-3′-yl)pyrazolo[1,5-a]pyrimidine-3-carboxamide] | +++ (Compounds with a Cisplatin sensitization value of <0.02 μM are marked with “+++.”)
CN1CCN(c2ccc(-c3ccncc3NC(=O)c3c(N)nn4cc(F)cnc34)cn2)CC1 [I-C-21, 2-amino-6-fluoro-N-(6-(4-methylpiperazin-1-yl)-[3,4′-bipyridin]-3′-yl)pyrazolo[1,5-a]pyrimidine-3-carboxamide] | +++ (Compounds with a Cisplatin sensitization value of <0.02 μM are marked with “+++.”)
Cc1ccc(-c2ccncc2NC(=O)c2c(N)nn3cc(F)cnc23)cn1 [I-C-22, 2-amino-6-fluoro-N-(6-methyl-[3,4′-bipyridin]-3′-yl)pyrazolo[1,5-a]pyrimidine-3-carboxamide] | ++ (Compounds with a Cisplatin sensitization value >0.02 μM but <0.2 μM are marked with “++.”)
CN1CCC(c2ccncc2NC(=O)c2c(N)nn3cc(C(C)(C)C#N)cnc23)CC1 [I-C-23, 2-amino-6-(2-cyanopropan-2-yl)-N-(4-(1-methylpiperidin-4-yl)pyridin-3-yl)pyrazolo[1,5-a]pyrimidine-3-carboxamide] | + (Compounds with a Cisplatin sensitization value >0.2 μM but <5 μM are marked with “+.”)
Nc1nn2cc(F)cnc2c1C(=O)Nc1cnccc1-c1ccncc1 [I-C-24, N-([4,4′-bipyridin]-3-yl)-2-amino-6-fluoropyrazolo[1,5-a]pyrimidine-3-carboxamide] | +++ (Compounds with a Cisplatin sensitization value of <0.02 μM are marked with “+++.”)
CN1CCN(C(=O)c2ccc(-c3ccncc3NC(=O)c3c(N)nn4cc(F)cnc34)cc2)CC1 [I-C-25, 2-amino-6-fluoro-N-(4-(4-(4-methylpiperazine-1-carbonyl)phenyl)pyridin-3-yl)pyrazolo[1,5-a]pyrimidine-3-carboxamide] | +++ (Compounds with a Cisplatin sensitization value of <0.02 μM are marked with “+++.”)
